According to patent US11939398B2, “Modified peptides for use in treating neurodegenerative disorders” (Neuro-Bio Ltd, priority 2016, dated 2024):
Where a SMILES comes first, the peptide text is derived from it.

Tests used:
PC12 cells [1] = assay: Calcium fluorometry (Fluo-8, PNU282987-induced calcium increase) in PC12 cells; format: cell-based; conditions: in conjunction with T30, PC12 cells
Experimental: PC12 cells were plated in 200 μl of Dulbecco's Modified Eagle's medium (DMEM) plus 2 mM of L-glutamine medium the day before the experiment in 96 well plates. On the day of the experiment, the Fluo-8 solution (Abcam) was prepared as described by the provider by adding 20 μl of Fluo-8 in the assay buffer that contains 9 ml of Hank's Balanced Salt Solution (HBSS) and 1 ml of pluronic F127 Plus. Subsequently, 100 μl of growth medium was removed and 100 μl of Fluo-8 solution were added. Treatments with T30 in conjunction with NBP14 or Tri peptides were added and incubated for 30 minutes in the incubator and 30 minutes room temperature. After 1 h, the plate was placed in the fluorescence plate reader (Fluostar, Optima, BMG Labtech, Ortenberg, Germany). Before reading the fluorescence, PNU282987 1 μM, an alpha7 specific agonist of the nicotinic receptors, was prepared and placed in the Fluostar injector. For each well, the reading was formed by a basal fluorescence reading followed by PNU282987 injection that induced an increase of calcium via nicotinic receptors.
In each of the different cell techniques, the statistics analysis was performed with the average of the percentage values of 3 or more experiments. Comparisons between multiple treatment groups and the same control were performed by one-way analysis of variance (ANOVA) and Tukey's post-hoc tests using GraphPAD Instat (GraphPAD software, San Diego, California). Statistical significance was taken at a p value<0.05.

[2] = stability / degradation in human blood; format: in vitro ADME; conditions: human blood diluted with PBS
Experimental: (§1) Test compounds were spiked at 10 μg/ml into either PBS or blood (Male Wistar rat or Human) diluted with PBS, and a series of samples taken according to the following scheme:
(§2) Procaine, a compound known to be unstable in blood, was included as a positive control (ran with 5-fold diluted blood only). The sampling procedure was to add an aliquot to ice-cold acetonitrile, centrifuge, and store the supernatant on dry ice until analysis. Analysis by UHPLC-TOF mass spectrometry using electrospray ionisation was performed on the same day as the incubations were performed.

[3] = tested on: rat basal forebrain slices; assay: voltage-sensitive dye imaging (VSDI) on brain slices, Example 5; format: cell-based
Experimental: Male Wistar rats (14 days old) were anaesthetised using isoflurane (˜15 ml, 100% w/w). Isoflurane was applied to the cotton bed at the bottom of an anaesthetic chamber (glass box 20×15×15 cm) where rats were then placed for approximately 45 s until complete anaesthesia was reached. The hind paw of each anaesthetised rat was pinched to check for the appropriate depth of anaesthesia. Upon confirmation of anaesthesia, rats were quickly decapitated, with the brain being quickly removed and immersed in ice cold oxygenated ‘slicing’ artificial cerebrospinal fluid (aCSF in mmol: 120 NaCl, 5 KCL, 20 NaHCO3, 2.4 CaCl2 2 MgSO4, 1.2 KH2PO4, 10 glucose, 6.7 HEPES salt and 3.3 HEPES acid; pH=7.1). Coronal slices (400 μm thick) were then taken from a block of brain containing the basal forebrain, namely the MS-dBB complex (between +9.20 and +9.48 mm Interaural and +0.48 and +0.2 mm Bregma, FIG. 4A) and the somatosensory barrel field cortex (SiBF, between +8.08 and +7.20 mm Interaural and −0.92 mm and −1.80 mm Bregma) (Paxinos and Watson, 1998) using a Vibratome (Leica VTi000S).
Slices were then transferred to a bubbler pot containing oxygenated aCSF at room temperature (recording aCSF in mmol: 124 NaCl, 5 KCL, 20 NaHCO3, 2.4 CaCl2 2 MgSO4, 1.3 KH2PO4, 10 glucose; pH=7.4) which was identical to that used in VSDI (voltage sensitive dye imaging) recording. Slices were then left for approximately 1-1.5 hours before preparing them for VSD staining.
Slices were placed in a dark, high humidity chamber filled with aCSF bubbled with 95% O2, 5% CO2. Once there, the dye solution (4% 0.2 mM styryl dye pyridinium 4-[2-[6-(dibutylamino)-2-napthalenyl]-ethenyl]-1-(3-sulfopropyl)hydroxide (Di-4-NEPPS), Invitrogen, Paisley, UK in 48% aCSF, 48% foetal bovine serum, 3.5% DMSO and 0.4% cremophore EL) (Tominaga et al., 2000) was applied to the slices for 20-25 minutes before being transferred back to a bubbler pot containing oxygenated aCSF kept at room temperature for 30 minutes.
When starting the VSDI recordings, slices were placed in the recording bath on a small piece of filter paper to allow the flow of oxygenated aCSF on the underside of the slice and in order to keep it alive. The slice was then weighed down by a home-made plastic grid that was placed on top of the slice. […] For the acquisition of VSD data, 2 dimensional images, equivalent to 88×60 pixels, were recorded using the MiCamo2 High Resolution camera (Brain Vision, Japan) with BV_Analyze imaging software. […] Light was generated using an Osram halogen xenophot 64634 HLX EFR Display/Optic lamp and was filtered to emit green (530±10 nm) light using a MHF-G150LR (Moritex Corporation) coupled to the MiCamo2 High resolution imaging system and filtered the emitted fluorescence through a >590 nm high pass filter. […]

[4] = stability / degradation in rat blood; format: in vitro ADME; conditions: rat blood diluted with PBS
Experimental: as §1, §2

PC12 cells [5] = assay: AChE activity assay (Ellman reagent) in PC12 cells treated with T30; format: cell-based; conditions: combined with T30 (1 μM)
Experimental: AChE activity was measured using the Ellman reagent that measures the presence of thiol groups as a result of AChE activity. In the case of the G4 experiment, AChE (G4) activity was tested alone and also together with either NBP14 or Tri peptides. PC12 cells were plated the day before the experiment as for the cell viability assay. Cells were treated with T30 (1 μM) alone or combined with NBP14 or Tri peptide (0.5 μM). After treatment, supernatant (perfusate) of each treatment was collected and 25 μL from each condition were added to a new flat bottomed 96 well plate followed by the addition of 175 μl of Ellman reagent (Solution A: KH2PO4 139 mM and K2HPO4 79.66 mM, pH 7.0; solution B (substrate): Acetylthiocholine Iodide 11.5 mM; Solution C (Reagent): 5,5′-dithiobis(2-nitrobenzoic acid) 8 mM and NaHCO3 15 mM). The Ellman reagent was prepared as a mixture of the 3 solutions in a ratio 33(A):3(B):4(C). Absorbance measurements were taken for an interval of 60 minutes across experiments at 405 nm in a Vmax plate reader (Molecular devices, Wokingham, UK).
In each of the different cell techniques, the statistics analysis was performed with the average of the percentage values of 3 or more experiments. […]

α7 nicotinic-receptor = α7 nicotinic-receptor (Homo sapiens, UniProt P36544); conditions: cited from earlier work
Sequence of α7 nicotinic-receptor (P36544 23-502): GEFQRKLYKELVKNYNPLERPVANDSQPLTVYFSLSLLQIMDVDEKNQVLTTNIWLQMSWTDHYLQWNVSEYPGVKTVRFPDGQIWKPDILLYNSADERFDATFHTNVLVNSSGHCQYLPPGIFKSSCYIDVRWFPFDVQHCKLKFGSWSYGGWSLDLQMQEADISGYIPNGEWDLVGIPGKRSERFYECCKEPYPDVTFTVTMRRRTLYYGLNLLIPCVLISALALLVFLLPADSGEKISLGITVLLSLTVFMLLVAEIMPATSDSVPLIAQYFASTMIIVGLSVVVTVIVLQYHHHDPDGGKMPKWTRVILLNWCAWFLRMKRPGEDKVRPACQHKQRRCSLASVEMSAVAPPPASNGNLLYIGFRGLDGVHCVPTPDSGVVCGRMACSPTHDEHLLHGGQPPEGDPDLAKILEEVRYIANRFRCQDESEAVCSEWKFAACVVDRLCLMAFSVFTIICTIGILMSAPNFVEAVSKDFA

Q: With `CSCC[C@@H]1NC(=O)[C@H](Cc2ccc(O)cc2)NC(=O)[C@H](CO)NC(=O)[C@H](CO)NC(=O)[C@H](Cc2c[nH]c3ccccc23)NC(=O)[C@H](CCCNC(=N)N)NC(=O)[C@H](Cc2c[nH]cn2)NC(=O)[C@H](Cc2ccccc2)NC(=O)[C@H](CCC(=O)O)NC(=O)[C@H](C)NC(=O)[C@H](CCCCN)NC(=O)[C@H](Cc2c[nH]c3ccccc23)NC(=O)[C@H](Cc2c[nH]cn2)NC(=O)[C@H](C(C)C)NC1=O` [NBP14, reference compound] (cyclo(AEFHRWSSYMVHWK)) as the compound, how does the “protection against T30-induced calcium influx” value (PC12 cells [1]) read?
A: protects against these toxic effects

Q: What about the stability in blood ([2]; 10 μg/ml, up to 60 min) of the same compound?
A: good stability

Q: What about the degradants detected ([2]; UHPLC-TOF MS) of the same compound?
A: no degradants were detected

Q: And the “blocking of T30-induced deviations from baseline (VSDI)” value ([3]; 4 μM co-perfused with T30 (2 uM))?
A: totally block the T30-induced effects

Q: What about the “change in magnitude (summed fluorescence) of evoked responses, compound alone” value ([3]; 4 μM in perfusate, no T30) of the same compound?
A: small, non-significant alterations

Q: What about the stability in blood ([4]; 10 μg/ml, up to 60 min) of the same compound?
A: good stability

Q: And the degradants detected ([4]; UHPLC-TOF MS)?
A: no degradants were detected

Q: What about the “protection against T30-induced AChE activity” value (PC12 cells [5]) of the same compound?
A: protects against these toxic effects

Q: Which “affinity for the α7 nicotinic-receptor” value (α7 nicotinic-receptor) does the source give for `COc1ccc2c3c1O[C@H]1C[C@@H](O)C=C[C@@]31CCN(C)C2` [galanthamine] here?
A: 10 µM
